Where two headings read alike, the source gives them in different places.
Columns and labels:
Assay type in all cases: in vivo
[1] = tested on: Abutilon theophrasti (ABUTH); test: Post-emergence herbicidal action against ABUTH; conditions: visual rating about 3 weeks after treatment vs untreated controls (100% = plants have died, 0% = like control plants)
Outline: (§1)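 Values are percent visual activity (0% like control, 100% plants dead) after about 3 weeks in the greenhouse. Treatment: post-emergence spray at one-leaf stage, 600 l/ha spray volume, 0.5% additive, doses 320 g/ha or lower.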

[2] = tested on: Alopecurus myosuroides (ALOMY); test: Post-emergence herbicidal action against ALOMY; conditions: visual rating about 3 weeks after treatment vs untreated controls (100% = plants have died, 0% = like control plants)
Outline: as §1

[3] = tested on: Amaranthus retroflexus (AMARE); test: Post-emergence herbicidal action against AMARE
Outline: as §1

[4] = tested on: Avena fatua (AVEFA); test: Post-emergence herbicidal action against AVEFA; conditions: visual rating about 3 weeks after treatment
Outline: as §1

[5] = tested on: Digitaria sanguinalis (DIGSA); test: Post-emergence herbicidal action against DIGSA; conditions: visual rating about 3 weeks after treatment
Outline: as §1

[6] = tested on: Echinochloa crus-galli (ECHCG); test: Post-emergence herbicidal action against ECHCG
Outline: as §1

[7] = tested on: Lolium rigidum (LOLRI); test: Post-emergence herbicidal action against LOLRI
Outline: as §1

[8] = tested on: Matricaria inodora (MATIN); test: Post-emergence herbicidal action against MATIN
Outline: as §1

[9] = tested on: Pharbitis purpurea (PHBPU); test: Post-emergence herbicidal action against PHBPU
Outline: as §1

[10] = tested on: Polygonum convolvulus (POLCO); test: Post-emergence herbicidal action against POLCO
Outline: as §1

[11] = tested on: Setaria viridis (SETVI); test: Post-emergence herbicidal action against SETVI
Outline: as §1

[12] = tested on: Verconica persica (VERPE); test: Post-emergence herbicidal action against VERPE
Outline: as §1

[13] = tested on: Viola tricolor (VIOTR); test: Post-emergence herbicidal action against VIOTR
Outline: as §1

[14] = tested on: Oryza sativa (ORYSA); conditions: crop plant compatibility
Outline: (§2)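 Percent effect on the crop was judged by eye against untreated controls, where 0% means like control and 100% means dead plants. Plants had been sprayed post-emergence at the one-leaf stage and then kept under optimum greenhouse conditions for about 3 weeks.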

[15] = tested on: Zea mays (ZEAMX); conditions: for Post-emergence action against ZEAMX in % (crop plant compatibility): 20 g/ha, effect in comparison to untreated controls; for Post-emergence action against ZEAMX in %: crop plant compatibility, 80 g/ha, effect vs untreated controls
Outline: as §2

[16] = 80 g/ha, visual rating about 3 weeks after treatment vs untreated controls (100% = plants have died, 0% = like control plants)
[17] = 320 g/ha, visual rating about 3 weeks after treatment
[18] = 20 g/ha, effect vs untreated controls
[19] = 80 g/ha, effect in comparison to untreated controls

SMILES | Post-emergence action against ABUTH in % ([1]; 320 g/ha) [%] | Post-emergence action against ALOMY in % ([2]; 320 g/ha) [%] | Post-emergence action against AMARE in % [3, 17] [%] | Post-emergence action against AVEFA in % ([4]; 320 g/ha) [%] | Post-emergence action against DIGSA in % ([5]; 320 g/ha) [%] | Post-emergence action against ECHCG in % ([6]; dosage 80 g/ha) [%] | Post-emergence action against ECHCG in % ([6]; dosage 320 g/ha) [%] | Post-emergence action against LOLRI in % ([7]; dosage 80 g/ha) [%] | Post-emergence action against LOLRI in % ([7]; dosage 320 g/ha) [%] | Post-emergence action against MATIN in % ([8]; dosage 320 g/ha) [%] | Post-emergence action against PHBPU in % ([9]; dosage 320 g/ha) [%] | Post-emergence action against POLCO in % ([10]; dosage 320 g/ha) [%] | Post-emergence action against SETVI in % ([11]; dosage 80 g/ha) [%] | Post-emergence action against SETVI in % ([11]; dosage 320 g/ha) [%] | Post-emergence action against VERPE in % ([12]; 320 g/ha, VERPE) [%] | Post-emergence action against VERPE in % ([12]; dosage 80 g/ha) [%] | Post-emergence action against VIOTR in % ([13]; 80 g/ha) [%] | Post-emergence action against VIOTR in % ([13]; 320 g/ha) [%] | Post-emergence action against ORYSA in % [14, 18] [%] | Post-emergence action against ZEAMX in % (crop plant compatibility) [15] [%] | also measured
CCCOC(=O)COc1nn(-c2ncccc2F)c(-c2ccc(F)nc2)c1C1CC1 [Example I-344] | 80 | 90 | 90 | 90 | 90 | 90 | 90 | 90 | 90 | 80 | 90 | 90 | 90 | 90 | 90 | 90 | 80 | 80 | 0 | 0 | Post-emergence action against ABUTH in % ([1]; 80 g/ha): 80%; Post-emergence action against ALOMY in % ([2]; 80 g/ha): 90%; Post-emergence action against AMARE in % [3, 16]: 90%; Post-emergence action against AVEFA in % ([4]; 80 g/ha): 90%; Post-emergence action against DIGSA in % ([5]; 80 g/ha): 90%; Post-emergence action against MATIN in % ([8]; dosage 80 g/ha): 80%; Post-emergence action against PHBPU in % ([9]; dosage 80 g/ha): 90%; Post-emergence action against POLCO in % ([10]; dosage 80 g/ha): 80%; Post-emergence action against ORYSA in % [14, 19]: 0%; Post-emergence action against ZEAMX in % [15]: 0%
O=C(COc1nn(-c2ncccc2F)c(-c2ccc(F)nc2)c1C1CC1)OCC(F)(F)F [Example I-326] | 80 | 90 | 90 | 90 | 90 | 90 | 90 | 90 | 90 | 80 | 90 | 90 | 90 | 90 | 90 | 90 | 90 | 90 | 0 | 0 | Post-emergence action against ABUTH in % ([1]; 80 g/ha): 80%; Post-emergence action against ALOMY in % ([2]; 80 g/ha): 90%; Post-emergence action against AMARE in % [3, 16]: 90%; Post-emergence action against AVEFA in % ([4]; 80 g/ha): 90%; Post-emergence action against DIGSA in % ([5]; 80 g/ha): 80%; Post-emergence action against PHBPU in % ([9]; dosage 80 g/ha): 80%; Post-emergence action against POLCO in % ([10]; dosage 80 g/ha): 80%; Post-emergence action against ZEAMX in % [15]: 0%
COCCOC(=O)COc1nn(-c2ncccc2F)c(-c2ccc(F)nc2)c1C1CC1 [Example I-314] | 80 | 90 | 90 | 90 | 90 | 90 | 90 | 90 | 90 | 80 | 90 | 90 | 90 | 90 | 90 | 90 | 90 | 90 | 0 | 0 | Post-emergence action against ABUTH in % ([1]; 80 g/ha): 80%; Post-emergence action against ALOMY in % ([2]; 80 g/ha): 90%; Post-emergence action against AMARE in % [3, 16]: 90%; Post-emergence action against AVEFA in % ([4]; 80 g/ha): 90%; Post-emergence action against DIGSA in % ([5]; 80 g/ha): 90%; Post-emergence action against PHBPU in % ([9]; dosage 80 g/ha): 90%; Post-emergence action against ORYSA in % [14, 19]: 20%; Post-emergence action against ZEAMX in % [15]: 10%
CC(C)=NOC(=O)COc1nn(-c2ncccc2F)c(-c2ccc(F)nc2)c1C1CC1 [Example I-366] | 90 | 90 | 80 | 90 | 90 | 90 | 90 | 90 | 90 | 80 | 80 | 80 | 90 | 90 | 90 | 80 | 80 | 90 | 0 | 10 | Post-emergence action against ABUTH in % ([1]; 80 g/ha): 80%; Post-emergence action against AVEFA in % ([4]; 80 g/ha): 90%; Post-emergence action against DIGSA in % ([5]; 80 g/ha): 80%; Post-emergence action against PHBPU in % ([9]; dosage 80 g/ha): 80%; Post-emergence action against ORYSA in % [14, 19]: 20%
O=C(COc1nn(-c2ncccc2F)c(-c2ccc(F)nc2)c1C1CC1)OCC1CC1 [Example I-318] | 80 | 90 | 90 | 90 | 90 | 90 | 90 | 90 | 90 | 80 | 90 | 90 | 90 | 90 | 90 | 90 | 80 | 90 | 0 | 0 | Post-emergence action against ABUTH in % ([1]; 80 g/ha): 80%; Post-emergence action against ALOMY in % ([2]; 80 g/ha): 90%; Post-emergence action against AMARE in % [3, 16]: 90%; Post-emergence action against AVEFA in % ([4]; 80 g/ha): 90%; Post-emergence action against DIGSA in % ([5]; 80 g/ha): 90%; Post-emergence action against MATIN in % ([8]; dosage 80 g/ha): 80%; Post-emergence action against PHBPU in % ([9]; dosage 80 g/ha): 90%; Post-emergence action against POLCO in % ([10]; dosage 80 g/ha): 90%; Post-emergence action against ZEAMX in % [15]: 0%
O=C(COc1nn(-c2ncccc2F)c(-c2ccc(F)nc2)c1C1CC1)OCC1CCCO1 (centres unmarked) [Example I-274] | 80 | 90 | 90 | 90 | 90 | 80 | 90 | 80 | 90 | 90 | 80 | 80 | 90 | 90 | 90 | 90 | 80 | 90 | 0 | 10 | Post-emergence action against ZEAMX in % [15]: 20%
